Laboratory results taken from PMC7023064, “Design, Synthesis, and Evaluation of Novel 2-Methoxyestradiol Derivatives as Apoptotic Inducers through an Intrinsic Apoptosis Pathway” (Biomolecules, 2020).
Read-outs that look alike come from different tables or passages of the source.

Legend:
[1] = tested on: normal human liver L-O2 cell lines; assay: MTT cytotoxicity assay, L-O2; assay type: cell-based; settings: mean ± SD of three experiments, No = No inhibition detected
Experimental: (§1) Human breast adenocarcinoma MCF-7 cell lines, human breast cancer MDA-MB-231 cell lines, and the normal human liver L-O2 cell lines were provided by Nanjing KeyGen Biotech Co. Ltd. (Nanjing, China). MCF-7 cells were cultured in a base medium (90% RPMI-1640 and 10% FBS) at 37 °C, 5% CO2 and a saturated humidity atmosphere. MDA-MB-231 cells were cultured in a base medium (90% […] and 10% FBS) at 37 °C, 5% CO2 and a saturated humidity atmosphere. L-O2 cells were cultured in a base medium (90% DMEM and 10% FBS) at 37 °C, 5% CO2 and a saturated humidity atmosphere.
(§2) The cytotoxicity of the tested compounds was determined using the 3-(4,5-dimethyl-2-thiazolyl)-2,5-diphenyl-2-H-tetrazolium bromide (MTT) assay. Cells were seeded in 96-well plates and incubated in a 5% CO2 incubator at 37 °C. When the cells adhered, compounds at different concentrations were added to every well. After incubation for another 72 h, MTT solution (5 mg/mL) was added into each well and cells were incubated for an additional 4 h. The viable cells were stained with MTT and scanned with an electrophotometer at 570 nm. Each concentration treatment was done in triplicate wells. The half maximal inhibitory concentration (IC50) values were estimated by fitting the inhibition data to a dose-dependent curve using a logistic derivative equation.

[2] = tested on: human breast adenocarcinoma MCF-7 cell lines; assay: MTT cytotoxicity assay, MCF-7; assay type: cell-based
Experimental: as §1, §2

[3] = tested on: human breast cancer MDA-MB-231 cell lines; assay: MTT cytotoxicity assay, MDA-MB-231; assay type: cell-based; settings: mean ± SD of three experiments
Experimental: as §1, §2

[4] = tested on: MCF-7 and MDA-MB-231 cell lines; assay: MTT assay, summary over tested tumor cells; assay type: cell-based, human; settings: for IC50: Homo sapiens, MCF-7 and MDA-MB-231, read-out: IC50, anti-proliferative activity against tested tumor cells
Experimental: as §1, §2

[5] = Homo sapiens, MCF7, MTT, 72 h, mean ± SD of three experiments, read-out: IC50 MCF-7
[6] = Homo sapiens, MCF7, Table 2, mean ± SD of three experiments, read-out: IC50 for MCF-7
[7] = Homo sapiens, MCF7, pIC50 = −log(IC50), read-out: pIC50 for MCF-7 (converted)
[8] = MTT, 72 h, mean ± SD of three experiments, read-out: IC50 MCF-7
[9] = Table 2, mean ± SD of three experiments, read-out: IC50 for MCF-7

| Molecule | IC50 L-O2 ([1]; 72 h) | IC50 [2, 5] | IC50 [2, 6] | IC50 [2, 7] | IC50 ([3]; Homo sapiens, MDA-MB-231, 72 h) | melting point | IC50 ([1]; 72 h) | IC50 [2, 8] | IC50 [2, 9] | pIC50 for MCF-7 ([2]; pIC50 = −log(IC50)) | IC50 ([3]; 72 h) | IC50 ([1]; Homo sapiens, L02, 72 h) | IC50 [4] | selectivity towards cancerous cell lines vs healthy cell line ([4]; MCF-7 and MDA-MB-231 vs L-O2) |
| --- | --- | --- | --- | --- | --- | --- | --- | --- | --- | --- | --- | --- | --- | --- |
| COc1cc2c(cc1OCCCCCCCCn1ccc(=O)n(CCCCCCCCOc3cc4c(cc3OC)[C@H]3CC[C@]5(C)[C@@H](O)CC[C@H]5[C@@H]3CC4)c1=O)CC[C@@H]1[C@@H]2CC[C@]2(C)[C@@H](O)CC[C@@H]12 [Compound 22b, 1,3-Bis-{8-[2-Methoxy-17β-Hydroxy-Estra-1,3,5(10)-Triene-3-yl-Oxy]-Octyl}-Uracil] | No | > 100 µM | > 100 µM | > 100 µM | > 100 µM | 74 to 76 °C | – | – | – | – | – | – | – | – |
| COc1cc2c(cc1OCCCCCCn1ccc(=O)n(CCCCCCOc3cc4c(cc3OC)[C@H]3CC[C@]5(C)[C@@H](O)CC[C@H]5[C@@H]3CC4)c1=O)CC[C@@H]1[C@@H]2CC[C@]2(C)[C@@H](O)CC[C@@H]12 [Compound 20b, 1,3-Bis-{6-[2-Methoxy-17β-Hydroxy-Estra-1,3,5(10)-Triene-3-yl-Oxy]-Hexyl}-Uracil] | No | > 100 µM | > 100 µM | > 100 µM | > 100 µM | 93 to 94 °C | – | – | – | – | – | – | – | – |
| COc1cc2c(cc1O)CC[C@@H]1[C@@H]2CC[C@]2(C)[C@@H](OCCCCCCCCn3ccc(=O)n(CCCCCCCCO[C@H]4CC[C@H]5[C@@H]6CCc7cc(O)c(OC)cc7[C@H]6CC[C@]45C)c3=O)CC[C@@H]12 [Compound 14b, 1,3-Bis-{8-[2-Methoxy-3-Hydroxy-Estra-1,3,5(10)-Triene-17β-yl-Oxy]-Octyl}-Uracil] | No | > 100 µM | > 100 µM | > 100 µM | > 100 µM | 73 to 75 °C | – | – | – | – | – | – | – | – |
| 17 β-[8-(5-Methyl-Uracil-3-yl)-Octyloxy]-2-Methoxy-Estra-1,3,5(10)-Triene-3-ol [Compound 15a] | – | – | – | – | – | – | 52.6 ± 1.82 µM | 12.1 ± 0.45 µM | 12.1 ± 0.45 µM | 4.92 | 19.3 ± 1.54 µM | – | – | – |
| COc1cc2c(cc1OCCCCCCn1cc(C)c(=O)n(CCCCCCOc3cc4c(cc3OC)[C@H]3CC[C@]5(C)[C@@H](O)CC[C@H]5[C@@H]3CC4)c1=O)CC[C@@H]1[C@@H]2CC[C@]2(C)[C@@H](O)CC[C@@H]12 [Compound 21b, 1,3-bis-{6-[2-Methoxy-17β-Hydroxy-Estra-1,3,5(10)-Triene-3-yl-oxy]-Hexyl}-5-Methyl-Uracil] | – | 28.4 ± 1.76 µM | 28.4 ± 1.76 µM | 28.2 µM | 23.8 ± 1.45 µM | 79 to 81 °C | – | – | – | – | – | > 100 µM | ~25 µM | about 4 fold |
| COc1cc2c(cc1O)CC[C@@H]1[C@@H]2CC[C@]2(C)[C@@H](OCCCCCCn3cc(C)c(=O)n(CCCCCCO[C@H]4CC[C@H]5[C@@H]6CCc7cc(O)c(OC)cc7[C@H]6CC[C@]45C)c3=O)CC[C@@H]12 [Compound 13b, 1,3-Bis-{6-[2-Methoxy-3-Hydroxy-Estra-1,3,5(10)-Triene-17β-yl-oxy]-Hexyl}-5-Methyl-Uracil] | No | > 100 µM | > 100 µM | > 100 µM | > 100 µM | 84 to 86 °C | – | – | – | – | – | – | – | – |
| COc1cc2c(cc1OCCCCCCn1c(=O)ccn([C@@H]3O[C@H](CO)[C@@H](O)[C@H]3O)c1=O)CC[C@@H]1[C@@H]2CC[C@]2(C)[C@@H](O)CC[C@@H]12 [Compound 18, 3-[6-(1-β-D-Ribofuranosyluracil-3-yl)-Hexyloxy]-2-Methoxy-Estra-1,3,5(10)-Triene-17β-ol] | – | 6.21 ± 0.37 µM | 6.21 ± 0.37 µM | 6.17 µM | 3.89 ± 0.36 µM | 99 to 100 °C | – | – | – | – | – | 21.3 ± 0.66 µM | 3.89 to 16.7 µM | – |
| 3-[8-(5-Methyl-Uracil-3-yl)-Octyloxy]-2-Methoxy-Estra-1,3,5(10)-Triene-17β-ol [Compound 23a] | – | – | – | – | – | – | 25.5 ± 1.86 µM | 8.75 ± 0.22 µM | 8.75 ± 0.22 µM | 5.06 | 12.7 ± 0.22 µM | – | – | – |
| COc1cc2c(cc1O)CC[C@@H]1[C@@H]2CC[C@]2(C)[C@@H](OCCCCCCn3ccc(=O)n(CCCCCCO[C@H]4CC[C@H]5[C@@H]6CCc7cc(O)c(OC)cc7[C@H]6CC[C@]45C)c3=O)CC[C@@H]12 [Compound 12b, 1,3-bis-{6-[2-Methoxy-3-Hydroxy-Estra-1,3,5(10)-Triene-17β-yl-oxy]-Hexyl}-Uracil] | No ^b | > 100 µM | > 100 µM | > 100 µM | > 100 µM | 71 to 73 °C | – | – | – | – | – | – | – | – |
| 17 β-[6-(5-Methyl-Uracil-3-yl)-Hexyloxy]-2-Methoxy-Estra-1,3,5(10)-Triene-3-ol [Compound 13a] | – | – | – | – | – | – | 51.4 ± 1.47 µM | 16.6 ± 1.26 µM | 16.6 ± 1.26 µM | 4.78 | 13.3 ± 0.16 µM | – | – | – |
| COc1cc2c(cc1O)CC[C@@H]1[C@@H]2CC[C@]2(C)[C@@H](O)CC[C@@H]12 [Compound 1, 2-Methoxyestradiol] | – | 1.51 ± 0.04 µM | 1.51 ± 0.04 µM | 1.51 µM | 1.86 ± 0.02 µM | – | – | – | – | – | – | 4.7 ± 0.45 µM | – | – |
| 3-[8-(Uracil-3-yl)-Octyloxy]-2-Methoxy-Estra-1,3,5(10)-Triene-17β-ol [Compound 22a] | – | – | – | – | – | – | 25.9 ± 1.82 µM | 10.3 ± 0.37 µM | 10.3 ± 0.37 µM | 4.99 | 9.58 ± 0.98 µM | – | – | – |
| O=c1[nH]cc(F)c(=O)[nH]1 [Compound 5-FU, reference compound] | – | – | – | – | – | – | > 100 µM | 8.87 ± 0.59 µM | – | – | 61.9 ± 2.23 µM | – | – | – |
| 3-[6-(5-Methyl-Uracil-3-yl)-Hexyloxy]-2-Methoxy-Estra-1,3,5(10)-Triene-17β-ol [Compound 21a] | – | – | – | – | – | – | 28.2 ± 0.57 µM | 9.97 ± 0.39 µM | 9.97 ± 0.39 µM | 5.00 | 7.34 ± 0.56 µM | – | – | – |
| 3-[6-(Uracil-3-yl)-Hexyloxy]-2-Methoxy-Estra-1,3,5(10)-Triene-17β-ol [Compound 20a] | – | – | – | – | – | – | 38.5 ± 1.87 µM | 17.9 ± 0.22 µM | 17.9 ± 0.22 µM | 4.75 | 14 ± 1.69 µM | – | – | – |
| COc1cc2c(cc1OCCCCCCCCn1cc(C)c(=O)n(CCCCCCCCOc3cc4c(cc3OC)[C@H]3CC[C@]5(C)[C@@H](O)CC[C@H]5[C@@H]3CC4)c1=O)CC[C@@H]1[C@@H]2CC[C@]2(C)[C@@H](O)CC[C@@H]12 [Compound 23b, 1,3-bis-{8-[2-Methoxy-17β-Hydroxy-Estra-1,3,5(10)-Triene-3-yl-Oxy]-octyl}-5-Methyl-Uracil] | No | > 100 µM | > 100 µM | > 100 µM | > 100 µM | 75 to 76 °C | – | – | – | – | – | – | – | – |
| COc1cc2c(cc1O)CC[C@@H]1[C@@H]2CC[C@]2(C)[C@@H](OCCCCCCn3c(=O)ccn([C@@H]4O[C@H](CO)[C@@H](O)[C@H]4O)c3=O)CC[C@@H]12 [Compound 10, 17 β-[6-(1-β-D-Ribofuranosyluracil-3-yl)-Hexyloxy]-2-Methoxy-Estra-1,3,5(10)-Triene-3-ol] | – | 16.7 ± 0.3 µM | 16.7 ± 0.3 µM | 16.6 µM | 13.2 ± 1.09 µM | 79 to 81 °C | – | – | – | – | – | 35.2 ± 0.42 µM | 3.89 to 16.7 µM | – |
| COc1cc2c(cc1O)CC[C@@H]1[C@@H]2CC[C@]2(C)[C@@H](OCCCCCCCCn3cc(C)c(=O)n(CCCCCCCCO[C@H]4CC[C@H]5[C@@H]6CCc7cc(O)c(OC)cc7[C@H]6CC[C@]45C)c3=O)CC[C@@H]12 [Compound 15b, 1,3-bis-{8-[2-Methoxy-3-Hydroxy-Estra-1,3,5(10)-Triene-17β-yl-oxy]-Octyl}-5-Methyl-Uracil] | No | > 100 µM | > 100 µM | > 100 µM | > 100 µM | 73 to 75 °C | – | – | – | – | – | – | – | – |
| 17 β-[8-(Uracil-3-yl)-Octyloxy]-2-Methoxy-Estra-1,3,5(10)-Triene-3-ol [Compound 14a] | – | – | – | – | – | – | 17.5 ± 0.69 µM | 9.22 ± 0.21 µM | 9.22 ± 0.21 µM | 5.04 | 8 ± 0.41 µM | – | – | – |
| COc1cc2c(cc1OCCCCCCCCn1c(=O)ccn([C@@H]3O[C@H](CO)[C@@H](O)[C@H]3O)c1=O)CC[C@@H]1[C@@H]2CC[C@]2(C)[C@@H](O)CC[C@@H]12 [Compound 19, 3-[8-(1-β-D-Ribofuranosyluracil-3-yl)-Octyloxy]-2-Methoxy-Estra-1,3,5(10)-Triene-17β-ol] | – | 7.87 ± 0.42 µM | 7.87 ± 0.42 µM | 7.94 µM | 10.44 ± 0.07 µM | 93 to 95 °C | – | – | – | – | – | 32.8 ± 0.65 µM | 3.89 to 16.7 µM | – |
